≈ marks a conversion by molar mass, not a printed value. Where two headings read alike, the source gives them in different places.
Legend:
[1] = system: Mycoplasma hyorhinis 29E; test: broth-dilution microtiter MIC test; type: cell-based; conditions: Mycoplasma, 29E
Method: (§1) The MIC's in Table III were determined by standard agar-dilution assays. The MIC's in Table IV were obtained using conventional brothdilution microtiter tests.

[2] = system: Pasteurella multocida 22A; test: broth-dilution microtiter MIC test; type: cell-based; conditions: Pasteurella multocida, 22A
Method: as §1

[3] = system: Mycoplasma synoviae 40A; test: broth-dilution microtiter MIC test; type: cell-based; conditions: Mycoplasmopsis synoviae, 40A
Method: as §1

[4] = system: Mycoplasma gallisepticum 15E; test: broth-dilution microtiter MIC test; type: cell-based; conditions: Mycoplasmoides gallisepticum, 15E
Method: as §1

[5] = system: Pasteurella hemolytica 23C; test: broth-dilution microtiter MIC test; type: cell-based; conditions: Pasteurella, 23C
Method: as §1

[6] = system: Pasteurella hemolytica 22C; test: broth-dilution microtiter MIC test; type: cell-based; conditions: Pasteurella, 22C
Method: as §1

[7] = system: Pasteurella multocida 40G; test: broth-dilution microtiter MIC test; type: cell-based; conditions: Pasteurella multocida, 40G
Method: as §1

[8] = system: Pasteurella multocida 60A; test: broth-dilution microtiter MIC test; type: cell-based; conditions: Pasteurella multocida, 60A
Method: as §1

[9] = system: Mycoplasma gallisepticum 29C; test: broth-dilution microtiter MIC test; type: cell-based; conditions: Mycoplasmoides gallisepticum, 29C
Method: as §1

[10] = system: Pasteurella multocida 17E; test: broth-dilution microtiter MIC test; type: cell-based; conditions: Pasteurella multocida, 17E
Method: as §1

[11] = system: Pasteurella multocida 68C; test: broth-dilution microtiter MIC test; type: cell-based; conditions: Pasteurella multocida, 68C
Method: as §1

[12] = system: Staphylococcus aureus 19C; test: broth-dilution microtiter MIC test; type: cell-based; conditions: Staphylococcus aureus, 19C
Method: as §1

[13] = system: Streptococcus sp. 19F; test: broth-dilution microtiter MIC test; type: cell-based; conditions: Streptococcus, SP.19F
Method: as §1

[14] = system: Bordetella bronchiseptica; test: broth-dilution microtiter MIC test; type: cell-based; conditions: Bordetella bronchiseptica; broth-dilution microtiter; read-out: MIC
Method: as §1

[15] = system: Mycoplasma gallisepticum 36H; test: broth-dilution microtiter MIC test; type: cell-based; conditions: Mycoplasmoides gallisepticum, 36H
Method: as §1

[16] = system: Pasteurella hemolytica 41D; test: broth-dilution microtiter MIC test; type: cell-based; conditions: Pasteurella, 41D
Method: as §1

[17] = system: Staphylococcus epidermidis EPI1; test: standard agar-dilution MIC assay; type: cell-based; conditions: Staphylococcus epidermidis, EPI1
Method: as §1

[18] = system: Streptococcus pyogenes C203; test: standard agar-dilution MIC assay; type: cell-based; conditions: Streptococcus pyogenes, C203
Method: as §1

[19] = system: Staphylococcus aureus X400; test: standard agar-dilution MIC assay; type: cell-based; conditions: Staphylococcus aureus, X400
Method: as §1

[20] = system: Escherichia coli EC14; test: standard agar-dilution MIC assay; type: cell-based; conditions: agar-dilution, read-out: MIC
Method: as §1

[21] = system: Streptococcus Group D X66; test: standard agar-dilution MIC assay; type: cell-based; conditions: read-out: MIC
Method: as §1

[22] = system: Staphylococcus aureus X1.1; test: standard agar-dilution MIC assay; type: cell-based; conditions: Staphylococcus aureus, X1.1
Method: as §1

[23] = system: Pseudomonas aeruginosa X239; test: standard agar-dilution MIC assay; type: cell-based; conditions: Pseudomonas aeruginosa, X239; agar-dilution; read-out: MIC
Method: as §1

[24] = system: Haemophilus influenzae 76; test: standard agar-dilution MIC assay; type: cell-based; conditions: Haemophilus influenzae, 76
Method: as §1

[25] = system: Streptococcus Group D 9960; test: standard agar-dilution MIC assay; type: cell-based; conditions: GROUPD9960, read-out: MIC
Method: as §1

[26] = system: Klebsiella pneumoniae X68; test: standard agar-dilution MIC assay; type: cell-based; conditions: Klebsiella pneumoniae, X68; agar-dilution; read-out: MIC
Method: as §1

[27] = system: Staphylococcus aureus V41; test: standard agar-dilution MIC assay; type: cell-based; conditions: Staphylococcus aureus, V41
Method: as §1

[28] = system: Haemophilus influenzae C.L.; test: standard agar-dilution MIC assay; type: cell-based; conditions: Haemophilus influenzae
Method: as §1

[29] = system: Staphylococcus aureus S13E; test: microbe, parasite or virus in culture; type: cell-based; conditions: Staphylococcus aureus, S13E
Method: as §1

[30] = system: Streptococcus pneumoniae Park I; test: microbe, parasite or virus in culture; type: cell-based; conditions: Streptococcus pneumoniae
Method: as §1

[31] = system: Streptococcus pyogenes C203; test: protection of mice experimentally infected with S. pyogenes C203; type: in vivo; conditions: mice, mg/kg × 2, doses given 1 and 4 hours postinfection, read-out: ED50
Method: The formula 1 compounds have shown in vivo antimicrobial activity against experimentally-induced infections in laboratory animals. When two doses of test compound were administered to mice experimentally infected with S. pyrogenes C203, the activity observed was measured as an ED50 value [effective dose in mg/kg to protect 50% of the test animals: see Warren Wick, et al., J. Bacteriol. 81, 233-235 (1961)].
^a mg/kg × 2; doses given 1 and 4 hours postinfection

SMILES: CCC1OC(=O)CC(O)C(C)C(OC2OC(C)C(O)C(N(C)C)C2OC(C)=O)C(CC=O)CC(C)C(=O)C=CC(C)=CC1COC1OC(C)C(OC(=O)CC(C)C)C(O)C1OC (centres unmarked) [Compound 25, 2'-O-Acetyl-4"-O-isovaleryl-lactenocin]
- MIC [1]: 1.56 µg/mL (≈ 1.76 µM)
- MIC [2]: 25 µg/mL (≈ 28.3 µM)
- MIC [3]: 3.12 µg/mL (≈ 3.53 µM)
- MIC [4]: 50 µg/mL (≈ 56.6 µM)
- MIC [5]: 25 µg/mL (≈ 28.3 µM)
- MIC [6]: 50 µg/mL (≈ 56.6 µM)
- MIC [7]: 25 µg/mL (≈ 28.3 µM)
- MIC [8]: 25 µg/mL (≈ 28.3 µM)
- MIC [9]: 0.39 µg/mL (≈ 0.441 µM)
- MIC [10]: 25 µg/mL (≈ 28.3 µM)
- MIC [11]: 25 µg/mL (≈ 28.3 µM)
- MIC [12]: 6.25 µg/mL (≈ 7.07 µM)
- MIC [13]: 1.56 µg/mL (≈ 1.76 µM)
- MIC [14]: > 50 µg/mL
- MIC [15]: 25 µg/mL (≈ 28.3 µM)
- MIC [16]: 25 µg/mL (≈ 28.3 µM)
- MIC [17]: 2 µg/mL (≈ 2.26 µM)
- MIC [18]: 2 µg/mL (≈ 2.26 µM)
- MIC [19]: 2 µg/mL (≈ 2.26 µM)
- MIC [20]: > 128 µg/mL
- MIC [21]: 2 µg/mL (≈ 2.26 µM)
- MIC [22]: 2 µg/mL (≈ 2.26 µM)
- MIC [23]: > 128 µg/mL
- MIC [24]: 16 µg/mL (≈ 18.1 µM)
- MIC [25]: 2 µg/mL (≈ 2.26 µM)
- MIC [26]: > 128 µg/mL
- MIC [27]: 2 µg/mL (≈ 2.26 µM)
- MIC [28]: 32 µg/mL (≈ 36.2 µM)
- MIC [29]: 2 µg/mL (≈ 2.26 µM)
- MIC [30]: 0.5 µg/mL (≈ 0.566 µM)

SMILES: CCC1OC(=O)CC(O)C(C)C(OC2OC(C)C(O)C(N(C)C)C2O)C(CC=O)CC(C)C(=O)C=CC(C)=CC1COC1OC(C)C(OC(=O)CC(C)C)C(O)C1OC (centres unmarked) [Compound 26, 4"-O-Isovaleryl-lactenocin]
- ED50 ([31]; C203, Oral): > 25 mg/kg
- ED50 ([31]; C203, sc, Subcutaneous): 5.37 mg/kg
- MIC [1]: 1.56 µg/mL (≈ 1.85 µM)
- MIC [2]: 25 µg/mL (≈ 29.7 µM)
- MIC [3]: 3.12 µg/mL (≈ 3.71 µM)
- MIC [4]: 50 µg/mL (≈ 59.4 µM)
- MIC [5]: 25 µg/mL (≈ 29.7 µM)
- MIC [6]: 50 µg/mL (≈ 59.4 µM)
- MIC [7]: 25 µg/mL (≈ 29.7 µM)
- MIC [8]: 25 µg/mL (≈ 29.7 µM)
- MIC [9]: 1.56 µg/mL (≈ 1.85 µM)
- MIC [10]: 25 µg/mL (≈ 29.7 µM)
- MIC [11]: 12.5 µg/mL (≈ 14.8 µM)
- MIC [12]: 3.12 µg/mL (≈ 3.71 µM)
- MIC [13]: 1.56 µg/mL (≈ 1.85 µM)
- MIC [14]: > 50 µg/mL
- MIC [15]: 50 µg/mL (≈ 59.4 µM)
- MIC [16]: 50 µg/mL (≈ 59.4 µM)
- MIC [17]: 1 µg/mL (≈ 1.19 µM)
- MIC [18]: 0.5 µg/mL (≈ 0.594 µM)
- MIC [19]: 2 µg/mL (≈ 2.38 µM)
- MIC [20]: > 128 µg/mL
- MIC [21]: 1 µg/mL (≈ 1.19 µM)
- MIC [22]: 1 µg/mL (≈ 1.19 µM)
- MIC [23]: > 128 µg/mL
- MIC [24]: 8 µg/mL (≈ 9.5 µM)
- MIC [25]: 1 µg/mL (≈ 1.19 µM)
- MIC [26]: > 128 µg/mL
- MIC [27]: 1 µg/mL (≈ 1.19 µM)
- MIC [28]: 8 µg/mL (≈ 9.5 µM)
- MIC [29]: 1 µg/mL (≈ 1.19 µM)
- MIC [30]: 0.25 µg/mL (≈ 0.297 µM)

From patent US4820694A, “Modifications of 3-O-demethylmycinose in macrocin and lactenocin” (priority 1986, dated 1989)
